Test results taken from patent US20240382600A1, “BIFUNCTIONAL DEGRADERS COMPRISING A TEAD BINDER” (Novartis AG, priority 2021, published 2024).

Columns and labels:
[1] = target: TEAD1-GFP in HEK293A cells (Homo sapiens (Human), UniProt P28347); assay: TEAD1 protein abundance flow cytometry assay in HEK293A; type: cell-based; conditions: HEK293A TEAD1-GFP-CHYSEL-mCherry sensor cells, 24 h, GFP signal by flow cytometry
Method: Degradation of TEAD1 was measured in HEK293A cells (Invitrogen R70507) expressing TEAD1-GFP and mCherry from a stably integrated bicistronic TEAD1-GFP-CHYSEL-mCherry construct. Reduction of the GFP signal measured by flow cytometry served as readout for TEAD1 degradation after degrader treatment.
Stable HEK293A sensor cells were maintained in complete growth medium (DMEM high Glucose+10% FCS+1% L-Glutamine+1% NEAA+1% NaPyr.+4 μg/mL blasticidin) with passaging performed twice per week. On Day 0, stable HEK293A sensor cells were seeded at 5,000 cells/well in a 96-well microtiter plate in 100 μL complete medium. On Day 1, cells were treated in duplicate with 10-point 1:3 dilution series of compound using the HP D300 Digital Dispenser (Tecan). DMSO concentrations were normalized across the plate to 0.1%. On Day 2, after 24 h of incubation at 37° C., treatment media was discarded, cells rinsed with 100 μL/well PBS and then detached using 40 μL trypsin/well for 5 min. Trypsin was neutralized with 100 μL/well PBS+20% FCS).
Flow cytometry was performed on the samples using the CytoFlex S (Beckman Coulter). Cell identification was then performed using forward (FSC) vs. side scatter (SSC) plots. Single cell discrimination was performed using SSC-Width (SSC-W) vs. SSC-Height (SSCH) plots. Median GFP values for 2,500 single cells were used to determine TEAD1 levels. Median GFP values from HEK293A were used as a background signal and thus defining 0% TEAD1 signal. Median GFP values from DMSO treated HEK293A TEAD1-GFP CHYSEL-mCherry were used to define 100%
TEAD1 signal for subsequent DC50 curves (concentration at 50% TAED1 degradation). GFP and RFP were read in the channels called FITC and PE, respectively. Concentration response curves plotting relative reduction of the GFP signal (measured by flow cytometry) versus 10 compound concentrations (starting concentration 10 μM, 3 fold dilution steps) of the compounds allowed generation of DC50 values.

[2] = system: MKN-45/Ubc-luc cells (unspecific inhibition of luciferase expression or activity); assay: Reporter gene assay specificity control (Ubc-Luc), MKN-45; type: cell-based; conditions: Homo sapiens; MKN-45/Ubc-luc specificity control, 24 hrs
Summary of the method: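 MKN-45 cells stably carrying a ubiquitin C promoter–firefly luciferase construct, treated the day after seeding with eleven 2-fold compound dilutions (0.1% DMSO final) for 24 hrs at 37° C. Luminescence read 5 min after Steady Glo addition; cell-free background subtracted, as a control for nonspecific luciferase inhibition.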

[3] = system: SF268-MCAT_Luc_dox-i-shYAPLevy (Clone 13) cells; assay: Proliferation assay (resazurin/AlamarBlue), SF268; type: cell-based; conditions: Homo sapiens, SF-268; SF268, 72 hours
[4] = system: YAP-dependent transcription in NCI-H2052 Tet-On shYAP_2371 pLenti6 MCAT_Luc cells; assay: YAP reporter gene activity assay (MCAT-Luc), NCI-H2052; type: cell-based; conditions: Homo sapiens, 24 hrs
[5] = system: YAP-dependent transcription in SF268-MCAT_Luc_dox-i-shYAPLevy (Clone 13) cells; assay: YAP reporter gene activity assay (MCAT-Luc), SF268; type: cell-based; conditions: Homo sapiens, SF-268; SF268 MCAT_Luc, 24 hrs
[6] = target: Avi-humanTEAD4^217-434 / Cy5 labeled humanYAP^60-100 (Homo sapiens (Human), UniProt Q15561); assay: In-vitro biochemical TR-FRET assay (TEAD4/YAP); type: binding; conditions: 1 h at room temperature
Chain of Avi-humanTEAD4^217-434 / Cy5 labeled humanYAP^60-100 (Q15561 217-434): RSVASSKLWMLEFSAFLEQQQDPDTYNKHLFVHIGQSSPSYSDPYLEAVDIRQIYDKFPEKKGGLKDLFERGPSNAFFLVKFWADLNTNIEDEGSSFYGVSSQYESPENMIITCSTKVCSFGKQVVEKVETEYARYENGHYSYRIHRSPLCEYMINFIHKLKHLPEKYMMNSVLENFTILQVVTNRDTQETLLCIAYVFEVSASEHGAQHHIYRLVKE

MKN-45/Ubc-luc cells = assay: Proliferation assay (resazurin/AlamarBlue), MKN-45; type: cell-based; conditions: Homo sapiens; MKN-45, 72 hours
Summary of the method: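 MKN-45 cells carrying constitutive Ubc-driven luciferase reporter, treated the day after seeding with eleven 2-fold dilutions (0.1% DMSO) for 72 h at 37 °C. Viability by resazurin, referenced to day-0 plate; GI50 from % growth (100 none, 0 stasis, −100 kill) and residual viability at top concentration.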

[7] = system: NCI-H2052 Tet-On shYAP_2371 pLenti6 MCAT_Luc cells; assay: Proliferation assay (resazurin/AlamarBlue), NCI-H2052; type: cell-based; conditions: Homo sapiens; NCI-H2052, 72 hours

Chain of TEAD1-GFP in HEK293A cells (P28347 whole entry): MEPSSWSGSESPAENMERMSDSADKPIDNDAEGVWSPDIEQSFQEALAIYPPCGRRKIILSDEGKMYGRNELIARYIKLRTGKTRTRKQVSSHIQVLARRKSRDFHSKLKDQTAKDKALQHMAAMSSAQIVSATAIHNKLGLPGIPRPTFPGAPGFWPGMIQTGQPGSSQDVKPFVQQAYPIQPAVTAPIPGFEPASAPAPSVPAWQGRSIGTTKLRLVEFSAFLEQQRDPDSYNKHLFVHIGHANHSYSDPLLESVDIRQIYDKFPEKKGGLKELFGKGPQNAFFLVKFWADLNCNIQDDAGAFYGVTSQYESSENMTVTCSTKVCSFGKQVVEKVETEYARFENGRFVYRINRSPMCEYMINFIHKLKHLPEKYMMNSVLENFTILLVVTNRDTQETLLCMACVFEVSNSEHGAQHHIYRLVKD

## COc1ccc(C(N)=O)c(-c2c(Cl)c(F)cc3c2[C@H](C)[C@@](CN[C@H]2CC[C@H](C(=O)N4CCC(CC5CCN(CCn6cccc(CN7CCC(=O)NC7=O)c6=O)CC5)CC4)CC2)(c2ccccc2)O3)c1F (atropisomer, axis not shown) [Example 15, 2-((2S,3S,4S)-5-chloro-2-((((1r,4S)-4-(4-((1-(2-(3-((2,4-dioxotetrahydropyrimidin-1(2H)-yl)methyl)-2-oxopyridin-1(2H)-yl)ethyl)piperidin-4-yl)methyl)piperidine-1-carbonyl)cyclohexyl)amino)methyl)-6-fluoro-3-methyl-2-phenyl-2,3-dihydrobenzofuran-4-yl)-3-fluoro-4-methoxybenzamide]
[1]
  DC50: 3 nM
[2]
  IC50: > 2000 nM
[3]
  GI50: 85 nM
[4]
  IC50: 17 nM
[5]
  IC50: 2.6 nM
[6]
  IC50: < 1 nM
MKN-45/Ubc-luc cells
  GI50: 1550 nM
[7]
  GI50: 31 nM

## COc1ccc(C(N)=O)c(-c2c(Cl)c(F)cc3c2[C@H](C)[C@@](CN[C@H]2CC[C@H](C(=O)N4CCC(CC5CCN(C(=O)Cn6cccc(CN7CCC(=O)NC7=O)c6=O)CC5)CC4)CC2)(c2ccccc2)O3)c1F (atropisomer, axis not shown) [Example 16, 2-((2S,3S,4S)-5-chloro-2-((((1r,4S)-4-(4-((1-(2-(3-((2,4-dioxotetrahydropyrimidin-1(2H)-yl)methyl)-2-oxopyridin-1(2H)-yl)acetyl)piperidin-4-yl)methyl)piperidine-1-carbonyl)cyclohexyl)amino)methyl)-6-fluoro-3-methyl-2-phenyl-2,3-dihydrobenzofuran-4-yl)-3-fluoro-4-methoxybenzamide]
[1]
  DC50: 6 nM
[2]
  IC50: > 2000 nM
[3]
  GI50: 64 nM
[4]
  IC50: 14 nM
[5]
  IC50: 1.2 nM
[6]
  IC50: 1.3 nM
MKN-45/Ubc-luc cells
  GI50: > 2000 nM
[7]
  GI50: 52 nM

## COc1ccc(C(=O)N2CCC(CN3CCN(C(=O)[C@H]4CC[C@H](NC[C@]5(c6ccccc6)Oc6cc(F)c(Cl)c(-c7c(C(N)=O)ccc(OC)c7F)c6[C@@H]5C)CC4)CC3)CC2)cc1N1CCC(=O)NC1=O (atropisomer, axis not shown) [Example 17, 2-((2S,3S,4S)-5-chloro-2-((((1r,4S)-4-(4-((1-(3-(2,4-dioxotetrahydropyrimidin-1(2H)-yl)-4-methoxybenzoyl)piperidin-4-yl)methyl)piperazine-1-carbonyl)cyclohexyl)amino)methyl)-6-fluoro-3-methyl-2-phenyl-2,3-dihydrobenzofuran-4-yl)-3-fluoro-4-methoxybenzamide]
[1]
  DC50: 4 nM
[2]
  IC50: > 2000 nM
[3]
  GI50: 49 nM
[4]
  IC50: 15 nM
[5]
  IC50: 0.85 nM
[6]
  IC50: 1 nM
MKN-45/Ubc-luc cells
  GI50: > 2000 nM
[7]
  GI50: 62 nM

## COc1ccc(C(N)=O)c(-c2c(Cl)c(F)cc3c2[C@H](C)[C@@](CN[C@H]2CC[C@H](C(=O)N4CCC(C5CCN(C(=O)COc6ccc(C)c(N7CCC(=O)NC7=O)c6)CC5)CC4)CC2)(c2ccccc2)O3)c1F (atropisomer, axis not shown) [Example 19, 2-((2S,3S,4S)-5-chloro-2-((((1r,4S)-4-(1′-(2-(3-(2,4-dioxotetrahydropyrimidin-1(2H)-yl)-4-methylphenoxy)acetyl)-[4,4′-bipiperidine]-1-carbonyl)cyclohexyl)amino)methyl)-6-fluoro-3-methyl-2-phenyl-2,3-dihydrobenzofuran-4-yl)-3-fluoro-4-methoxybenzamide]
[1]
  DC50: 0.5 nM
[2]
  IC50: > 2000 nM
[3]
  GI50: 29 nM
[4]
  IC50: 4.6 nM
[5]
  IC50: 0.41 nM
[6]
  IC50: 2.1 nM
MKN-45/Ubc-luc cells
  GI50: > 2000 nM
[7]
  GI50: 12 nM

## COc1ccc(C(N)=O)c(-c2c(Cl)c(F)cc3c2[C@H](C)[C@@](CN[C@H]2CC[C@H](C(=O)N4CCC(OC5CCN(C(=O)COc6ccc(C)c(N7CCC(=O)NC7=O)c6)CC5)CC4)CC2)(c2ccccc2)O3)c1F (atropisomer, axis not shown) [Example 20, 2-((2S,3S,4S)-5-chloro-2-((((1r,4S)-4-(4-((1-(2-(3-(2,4-dioxotetrahydropyrimidin-1(2H)-yl)-4-methylphenoxy)acetyl)piperidin-4-yl)oxy)piperidine-1-carbonyl)cyclohexyl)amino)methyl)-6-fluoro-3-methyl-2-phenyl-2,3-dihydrobenzofuran-4-yl)-3-fluoro-4-methoxybenzamide]
[1]
  DC50: 0.4 nM
[2]
  IC50: > 20000 nM
[3]
  GI50: 18 nM
[4]
  IC50: 3.9 nM
[5]
  IC50: 0.22 nM
[6]
  IC50: 1.4 nM
MKN-45/Ubc-luc cells
  GI50: > 20000 nM
[7]
  GI50: 19 nM

## COc1ccc(C(N)=O)c(-c2c(Cl)c(F)cc3c2[C@H](C)[C@@](CN[C@H]2CC[C@H](C(=O)N4CCC(CC5CCN(C(=O)COc6ccc(C)c(N7CCC(=O)NC7=O)c6)CC5)CC4)CC2)(c2ccccc2)O3)c1F (atropisomer, axis not shown) [Example 21, 2-((2S,3S,4S)-5-chloro-2-((((1r,4S)-4-(4-((1-(2-(3-(2,4-dioxotetrahydropyrimidin-1(2H)-yl)-4-methylphenoxy)acetyl)piperidin-4-yl)methyl)piperidine-1-carbonyl)cyclohexyl)amino)methyl)-6-fluoro-3-methyl-2-phenyl-2,3-dihydrobenzofuran-4-yl)-3-fluoro-4-methoxybenzamide]
[1]
  DC50: 0.3 nM
[2]
  IC50: > 2000 nM
[3]
  GI50: 9.4 nM
[4]
  IC50: 1.4 nM
[5]
  IC50: 0.3 nM
[6]
  IC50: 1.6 nM
MKN-45/Ubc-luc cells
  GI50: > 2000 nM
[7]
  GI50: 4.3 nM

## COc1ccc(C(N)=O)c(-c2c(Cl)c(F)cc3c2[C@H](C)[C@@](CN[C@H]2CC[C@H](C(=O)N4CCN(CC5CCN(C(=O)COc6ccc(C)c(N7CCC(=O)NC7=O)c6)CC5)CC4)CC2)(c2ccccc2)O3)c1F (atropisomer, axis not shown) [Example 22, 2-((2S,3S,4S)-5-chloro-2-((((1r,4S)-4-(4-((1-(2-(3-(2,4-dioxotetrahydropyrimidin-1(2H)-yl)-4-methylphenoxy)acetyl)piperidin-4-yl)methyl)piperazine-1-carbonyl)cyclohexyl)amino)methyl)-6-fluoro-3-methyl-2-phenyl-2,3-dihydrobenzofuran-4-yl)-3-fluoro-4-methoxybenzamide]
[1]
  DC50: 0.4 nM
[2]
  IC50: > 2000 nM
[3]
  GI50: 9.5 nM
[4]
  IC50: 2 nM
[5]
  IC50: 0.18 nM
[6]
  IC50: 1 nM
MKN-45/Ubc-luc cells
  GI50: > 2000 nM
[7]
  GI50: 9.5 nM

## COc1ccc(C(N)=O)c(-c2c(Cl)c(F)cc3c2[C@H](C)[C@@](CN[C@H]2CC[C@H](C(=O)NCCCCCCCNC(=O)COc4ccc(C)c(N5CCC(=O)NC5=O)c4)CC2)(c2ccccc2)O3)c1F (atropisomer, axis not shown) [Example 23, 2-((2S,3S,4S)-5-chloro-2-((((1r,4S)-4-((7-(2-(3-(2,4-dioxotetrahydropyrimidin-1(2H)-yl)-4-methylphenoxy)acetamido)heptyl)carbamoyl)cyclohexyl)amino)methyl)-6-fluoro-3-methyl-2-phenyl-2,3-dihydrobenzofuran-4-yl)-3-fluoro-4-methoxybenzamide]
[1]
  DC50: 3 nM
[2]
  IC50: > 2000 nM
[3]
  GI50: 74 nM
[4]
  IC50: 13 nM
[5]
  IC50: 1.4 nM
[6]
  IC50: < 1 nM
MKN-45/Ubc-luc cells
  GI50: > 2000 nM
[7]
  GI50: 35 nM
